# Entries after “also recorded” stand apart in the source; their conditions may differ.
# Experiments:
# [1] = test system: peritoneal murine macrophages; parameters: method as in Meinel et al. ([2020]); settings: murine macrophage cells; ref Meinel et al. ([2020]); cited from earlier work
# [2] = Cytotoxicity in human red blood cells (hemolytic assay); assay type: cell-based; settings: human erythrocytes (1% suspension), 200.00 μM (maximum concentration tested)
# Experimental: (§1) Blood cells were centrifuged at 1500 rpm, the plasma and leukocytes were discarded, and the erythrocytes were washed in PBS. Then, the cells were diluted to a concentration of 1%, plated in 96‐well plates, and untreated or treated with the compound 7 at different concentrations (0.09–200.00 μM). The plate was incubated for 24 h at 37°C, and then centrifuged at 2000 rpm for 1 min. The supernatant was collected, and the absorbance (Abs) was determined in a spectrophotometer (Multiskan EX, Thermo Electron Corporation, Vantaa, Finland) at 540 nm. Untreated cells were considered the negative control. For the positive control, 0.2% saponin in deionized water was used.
# [3] = test system: L. amazonensis intracellular amastigotes; test: Activity against intracellular amastigote forms of L. amazonensis in peritoneal macrophages (Giemsa counting); assay type: cell-based, Leishmania amazonensis; settings: for IC50: Leishmania amazonensis, Peritoneal macrophage, intracellular amastigotes in murine peritoneal macrophages, 72 h; for SI (Selectivity Index): CC50 of peritoneal murine macrophages/IC50 L. amazonensis amastigotes
# Experimental: Peritoneal macrophages were obtained from BALB/c mice previously inoculated with 3% thioglycollate medium (da Trindade Granato et al. [2018]). The macrophages (2 × 10^6 cells/mL) were then allowed to adhere in 24‐well culture plates for 16 h at 37°C in a 5% CO2 atmosphere. After rinsing with phosphate‐buffered saline (PBS), the adhered macrophages were infected with stationary‐phase promastigotes of L. amazonensis at a 10:1 parasite‐to‐macrophage ratio for 4 h at 33°C. After several washes to remove non‐adherent promastigotes, the cells were either left untreated (negative control) or treated with the compounds (3.125–100.000 μM). Following a 72 h treatment period, the infected macrophages were fixed in ethanol, stained with Giemsa, and 200 macrophages were counted to determine the number of intracellular amastigotes. The GraFit software was used to determine the IC50, which was the outcome of three separate trials conducted in duplicate.
# [4] = Cytotoxicity against mammalian cells (MTT); assay type: cell-based, BALB/c mice; settings: BALB/c, mouse; peritoneal murine macrophages, 72 h, MTT
# Experimental: (§2) After being prepared as previously mentioned, murine peritoneal macrophages obtained from BALB/c mice were either left untreated (negative control) or treated with the compounds (3.125–100.000 μM). Using a spectrophotometer (Multiskan EX, Thermo Electron Corporation, Vantaa, Finland) set to 570 nm, cell viability was assessed after 72 h of treatment using the MTT method (Mosmann [1983]). A cytotoxic concentration for 50% of the cell population (CC50) was used to express the results. The reference medication was miltefosine (Cayman Chemical Company, Ann Arbor, MI, USA). The assays were performed in three independent experiments in duplicate. The selectivity index was calculated by […].
# [5] = test system: L. amazonensis promastigotes; test: Activity against promastigotes of L. amazonensis (MTT); assay type: cell-based; settings: Leishmania amazonensis, 72 h, read-out: Promastigote IC50
# Experimental: Promastigotes of L. amazonensis (IFLA/BR/67/PH8) were cultivated in brain heart infusion ([…] José dos […], Brazil) supplemented with bovine hemin (Sigma-Aldrich, St. Louis, MO, USA), folic acid (Sigma-Aldrich, St. Louis, MO, USA), inactivated fetal bovine serum (Cultilab, São Paulo, Brazil), and penicillin/streptomycin solution (Sigma-Aldrich, St. Louis, MO, USA). The cells were kept at 25°C in a BOD incubator. […] Louis, MO, USA; Mosmann [1983]). The viability of parasites was measured using a spectrophotometer (Multiskan EX-Thermo Electron Corporation, Vantaa, Finland) at 570 nm. The values were expressed as an inhibitory concentration capable of inhibiting 50% (IC50) of cell growth by using GraFit 5 software (Erithacus Software Ltda). […] Paulo, SP, Brazil) were used as reference drugs. All assays were run in triplicate across three separate trials.
# [6] = test system: human erythrocytes; test: Cytotoxicity in human red blood cells (hemolytic assay); assay type: cell-based; settings: 24 h, 0.09–200.00 μM
# Experimental: as §1
# [7] = test system: L. amazonensis promastigotes; test: Cell membrane integrity (propidium iodide); assay type: cell-based, Leishmania amazonensis; settings: 24 h, 1.25 and 2.50 μM
# Experimental: To evaluate cell membrane integrity, L. amazonensis promastigotes (5 × 10^6 cells) were treated with compound 7 (1.25 and 2.50 μM) for 24 h. After incubation, the cells were washed with PBS and stained with 0.20 μg/mL of propidium iodide (PI) (Sigma‐Aldrich, St. Louis, MO, USA) (da Trindade Granato et al. [2018]). Following a 15‐min incubation with PI, fluorescence was measured using a fluorimeter (FLx800) at an excitation/emission wavelength of 540/600 nm. Cells exposed to heat at 65°C for 10 min were used as a positive control.
# [8] = test system: L. amazonensis promastigotes; test: Total ROS production (H2DCFDA); assay type: cell-based, Leishmania amazonensis
# Experimental: (§3) To measure ROS and mitochondrial ROS (superoxide) levels, L. amazonensis promastigotes (5 × 10^6 cells) were exposed to compound 7 (1.25 and 2.50 μM) for 6 and 24 h, following the methodology described by da Trindade Granato et al. ([2018]). Before the incubation, cells were washed with PBS and stained with 1 mM H2DCFDA (Invitrogen, Waltham, MA, USA) to measure total ROS. Fluorescence was measured after a 30‐min incubation with the dye using a fluorimeter (FLx800, BioTek Instruments Inc., Winooski, VT, USA) at an excitation/emission wavelength of 485/528 nm. As a positive control, cells were treated with 62.5 μM H2O2. To quantify mitochondrial superoxide, the MitoSOX Red indicator (Invitrogen, Molecular Probes, Eugene, Oregon, USA) was employed. Leishmania amazonensis promastigotes were treated with compound 7 (1.25 and 2.50 μM) for 6 and 24 h at 25°C. Cells were labeled with MitoSOX Red indicator at 5 μM and incubated for 20 min. Promastigotes incubated with antimycin A (10 μM) were used as the positive control. Fluorescence intensity was evaluated in a spectrofluorometer (FLx800, BioTek Instruments Inc., Winooski, VT, USA) at 540/600 nm of excitation/emission, respectively.
# [9] = test system: L. amazonensis promastigotes; test: Mitochondrial superoxide (MitoSOX Red); assay type: cell-based, Leishmania amazonensis; settings: for increase in mitochondrial superoxide: 6 h
# Experimental: as §3
# [10] = test system: L. amazonensis promastigotes; test: Mitochondrial membrane potential (JC-1); assay type: cell-based, Leishmania amazonensis; settings: for mitochondrial membrane hyperpolarization: 24 h
# Experimental: To evaluate mitochondrial membrane potential (MMP), L. amazonensis promastigotes (5 × 10^6 cells) were exposed to compound 7 (1.25 μM and 2.50 μM) for 6 and 24 h. After incubation, the cells were washed with PBS and stained with 5.00 μM JC‐1 (Coimbra et al. [2019]). After a 40‐min incubation with JC‐1, the cells were washed with Hank's solution, and fluorescence was measured using a fluorimeter (FLx800, BioTek Instruments Inc., Winooski, VT, USA) at excitation/emission wavelengths of 485/528 nm and 540/600 nm to detect fluorescence from monomers and J‐aggregates, respectively. As a positive control, cells were treated with 10.00 μM FCCP (Sigma‐Aldrich, St. Louis, MO, USA). MMP was assessed by calculating the ratio of fluorescence emitted by J‐aggregates to that of monomers.
# [11] = test system: peritoneal murine macrophages; test: Cytotoxicity against mammalian cells (MTT); assay type: cell-based, BALB/c mice; settings: comparator from Meinel et al. [2020]
# Experimental: as §2
Compound,IC50 [3] [µM],CC50 at 72 h [4] [µM],IC50 [5] [nM],SI (Selectivity Index) [3],further results
"CCCCCCCCCCn1cc(COCC2CO2)[n+](C)n1.[I-] (stereo not drawn) [1‐decyl‐3‐methyl‐4‐((oxiran‐2‐ylmethoxy)methyl)‐1H‐1,2,3‐triazol‐3‐ium iodide]",–,–,–,–,fold lower cytotoxicity compared to its 4-hydroxy-substituted precursor [1]: approximately 2.5 fold
"C[C@@H]1[C@H](O)[C@@H](C)/C=C/C=C/C=C/C=C/C=C/C=C/C=C/[C@H](O[C@@H]2O[C@H](C)[C@@H](O)[C@H](N)[C@@H]2O)C[C@@H]2O[C@](O)(C[C@@H](O)C[C@@H](O)[C@H](O)CC[C@@H](O)C[C@@H](O)CC(=O)O[C@H]1C)C[C@H](O)[C@H]2C(=O)O [Am B, amphotericin B, reference compound]",85.8 ± 30.4,0.71 ± 0.22,–,–,"hemolysis at 24 h, 200 µM [2]: 95.9%"
"CCCCCCCCn1cc(COC(=O)c2ccccc2O)nn1 [Compound 2, (1‐Octyl‐1H‐1,2,3‐Triazol‐4‐Yl)methyl 2‐Hydroxybenzoate]",> 100,> 150,> 100000,–,–
"CCCCCCCCCCn1cc(COC(=O)c2ccccc2O)nn1 [Compound 3, (1‐Decyl‐1H‐1,2,3‐Triazol‐4‐Yl)methyl 2‐Hydroxybenzoate]",> 100,70.2 ± 14.2,> 100000,–,–
"CCCCCCCCCCCCn1cc(COC(=O)c2ccccc2O)nn1 [Compound 4, (1‐Dodecyl‐1H‐1,2,3‐Triazol‐4‐Yl)methyl 2‐Hydroxybenzoate]",> 100,> 150,> 100000,–,–
"CCCCCCCCCCCCCCn1cc(COC(=O)c2ccccc2O)nn1 [Compound 5, (1‐Tetradecyl‐1H‐1,2,3‐Triazol‐4‐Yl)methyl 2‐Hydroxybenzoate]",> 100,> 150,> 100000,–,–
"CCCCCCCCCCCCCCCCn1cc(COC(=O)c2ccccc2O)nn1 [Compound 6, (1‐Hexadecyl‐1H‐1,2,3‐Triazol‐4‐Yl)methyl 2‐Hydroxybenzoate]",> 100,> 150,> 100000,–,–
"CCCCCCCCn1cc(COC(=O)c2ccccc2O)[n+](C)n1.[I-] [Compound 7, 1‐Octyl‐4‐(((2‐Hydroxybenzoyl)oxy)methyl)‐3‐Methyl‐1H‐1,2,3‐Triazol‐3‐Ium Iodide]",6.23 ± 0.35,111 ± 34.5,1260 ± 270,17.81,"hemolysis at 24 h, 200 µM [2]: 3.82%; hemolytic effect (in words) [6]: no hemolytic effect; membrane integrity, PI staining (in words) [7]: unaffected; also recorded: no significant alterations; increase in total ROS ([8]; 6 h, 2× IC50 value (2.50 μM)): 56.54%; increase in total ROS ([8]; 6 h, IC50 value (1.25 μM)): 62.81%; increase in total ROS ([8]; 24 h, 2× IC50 value (2.50 μM)): 77.03%; increase in total ROS ([8]; 24 h, IC50 value (1.25 μM)): 79.87%; increase in mitochondrial superoxide ([9]; 2× IC50 value (2.50 μM)): 62.54%; increase in mitochondrial superoxide ([9]; IC50 value (1.25 μM)): 57.68%; mitochondrial superoxide levels (in words) ([9]; 24 h, 1.25 and 2.50 μM): no alteration; mitochondrial membrane potential (in words) ([10]; 6 h, 1.25 and 2.50 μM): no change; also recorded: without alterations; mitochondrial membrane hyperpolarization ([10]; 2× IC50 value (2.50 μM)): 29.66%; mitochondrial membrane hyperpolarization ([10]; IC50 value (1.25 μM)): 22.00%; fold lower cytotoxicity compared to the 4-hydroxy-substituted precursor previously described [11]: 3.8 fold"
"CCCCCCCCCCn1cc(COC(=O)c2ccccc2O)[n+](C)n1.[I-] [Compound 8, 1‐Decyl‐4‐(((2‐Hydroxybenzoyl)oxy)methyl)‐3‐Methyl‐1H‐1,2,3‐Triazol‐3‐Ium Iodide]",2.49 ± 0.5,0.31 ± 0.22,1080 ± 180,0.12,–
"CCCCCCCCCCCCn1cc(COC(=O)c2ccccc2O)[n+](C)n1 [Compound 9, 1‐Dodedecyl‐4‐(((2‐Hydroxybenzoyl)oxy)methyl)‐3‐Methyl‐1H‐1,2,3‐Triazol‐3‐Ium Iodide]",6.31 ± 1.86,1.34 ± 0.32,1580 ± 120,0.21,–
"CCCCCCCCCCCCCCn1cc(COC(=O)c2ccccc2O)[n+](C)n1.[I-] [Compound 10, 1‐Tetradecyl‐4‐(((2‐Hydroxybenzoyl)oxy)methyl)‐3‐Methyl‐1H‐1,2,3‐Triazol‐3‐Ium Iodide]",5.92 ± 2.24,2.37 ± 0.82,1550 ± 340,0.40,–
"CCCCCCCCCCCCCCCCn1cc(COC(=O)c2ccccc2O)[n+](C)n1.[I-] [Compound 11, 1‐Hexadecyl‐4‐(((2‐Hydroxybenzoyl)oxy)methyl)‐3‐Methyl‐1H‐1,2,3‐Triazol‐3‐Ium Iodide]",12.4 ± 1.86,4.01 ± 1.12,1720 ± 20,0.32,–
"CCCCCCCCCCCCCCCCOP(=O)([O-])OCC[N+](C)(C)C [Miltefosine, reference compound]",11.5 ± 1.79,151.81 ± 0.03,15000 ± 2080,–,"hemolysis at 24 h, 200 µM [2]: 95.9%"
